This note sets out measurements from patent US6419962B1, “External skin treatment composition” (Shiseido Company, Ltd., priority 1996, dated 2002).

This data set in a line: Moisture retention effect (coefficient of rate of moisture evaporation from weight change of sample). Format: physicochemical. To be noted: 50 wt % aqueous solution. As for the experimental part: The moisture retention effect of unicellularized carrot ([…]) was studied in comparison with water, glycerin ([…]), a methanol extract of carrot ([…]), and DPG (dipropylene glycol) ([…]).
That is, 50 μl each of the above samples was placed on a chemical balance placed in a room held to 22° C. and a dry humidity of 45%. The change in weight was measured every three minutes for seven times in total. From the results, the coefficient of the rate of moisture evaporation in the sample (coefficient k of rate of moisture evaporation found as dW/dt=kW where the amount of moisture is W and the elapsed time is t, that is, logW=kt+C (C is a constant)) was calculated. […]
Note that the method of study of this moisture retention effect was the same as the method used in the above Test Example A2. […]
Note that the method of study of the moisture retention effect was the same as the method performed in the above Test Example A2.
The moisture retention effect of unicellularized iris rhizome was studied in comparison with purified water, glycerol, and an ethanol extract of iris rhizome.
That is, with the exception of the purified water, a 50 wt % aqueous solution was prepared and the coefficient of the moisture evaporation rate was found in the same way as the study of the moisture retention effect of unicellularized carrot (Test Example A2). […]

For the compound `OCC(O)CO` [Glycerol], the “Coefficient of moisture evaporation rate” value is −0.0230.
